One series can be described thus: in vitro. The following applies: monkey.
In series [1] the test system is SARS-CoV2 virus (IND/ILS-01/2020). The series can be described thus: Drug assay: viral load by real-time RT-PCR in SARS-CoV2 infected Vero E6 cells. The format is cell-based. The conditions noted are these: Vero E6, 0.1 MOI, 24 h treatment, cell-associated viral RNA by RT-PCR.
Details of series [2]: method as in PMID 26506265, PMID 24466249, PMID 22454559. The conditions noted are these: cited from earlier work.
The subject of another series is SARS-CoV2. Also noted: method as in PMID 33330842. The conditions noted are these: cited from earlier work.
The next series relates to Vero E6 cells. The following applies: Vero E6, MTT, 0.01-20 µM.
The subject of series [3] is differentially expressed human proteins in COVID-19. The conditions noted are these: cited from earlier work.
Where [4] appears, read: Severe acute respiratory syndrome coronavirus 2, Vero C1008.
Where [5] appears, read: gene TNF, drug-gene interaction listed in DGIdb export, ref DGIdb.
[6] abbreviates: gene HCK, drug-gene interaction listed in DGIdb export, ref DGIdb.

These results are taken from PMC8025584, “Identification of multipotent drugs for COVID-19 therapeutics with the evaluation of their SARS-CoV2 inhibitory activity” (Computational and Structural Biotechnology Journal, 2021).

Read-outs that look alike come from different tables or passages of the source.

In “in vitro”, `OC(c1cc(C(F)(F)F)nc2c(C(F)(F)F)cccc12)C1CCCCN1` (centres unmarked) [Mefloquine] displayed a CC50 greater than 20 µM. The IC50 (as a rule, the point on the concentration scale where inhibition reaches its midpoint) in series [1] (setting [4]) is 0.37 µM. For `CC(C)(O)c1ccccc1CC[C@@H](SCC1(CC(=O)O)CC1)c1cccc(/C=C/c2ccc3ccc(Cl)cc3n2)c1` [Montelukast], the CC50 in the series “in vitro” was greater than 20 µM. Further, in series [2], the “can cross blood brain barrier” value is recorded as “can cross blood brain barrier”.

Regarding `OC(CNCC(O)C1CCc2cc(F)ccc2O1)C1CCc2cc(F)ccc2O1` (centres unmarked) [Nebivolol], in the series on SARS-CoV2, the “inhibition of SARS-CoV2” value was “submicromolar range”. Besides, in “in vitro”, the CC50 is greater than 20 µM. The concentration for half-maximal inhibition (IC50) in series [1] (setting [4]) turned out to be 5.21 µM. Besides, the “can cross blood brain barrier” value in series [2] is reported as “can cross blood brain barrier”.

With `CCN(CCO)CCCC(C)Nc1ccnc2cc(Cl)ccc12` (centres unmarked) [Hydroxychloroquine], the CC50 in “in vitro” was greater than 20 µM. The half-maximal inhibitory concentration (IC50) in series [1] (setting [4]) amounted to 5 µM. Regarding Ivermectin, half-maximal inhibition in series [1] (IC50) required 5.54 µM. The CC50 in the series with Vero E6 cells was 15 µM. On the same counts, the results for Capreomycin are 1 µM and greater than 20 µM. In the case of `CCc1c2c(nc3ccc(OC(=O)N4CCC(N5CCCCC5)CC4)cc13)-c1cc3c(c(=O)n1C2)COC(=O)[C@]3(O)CC` [IRINOTECAN, reference compound], the interaction_types result in series [3] (gene ISG15, ref DGIdb) is reported as “inhibitor”.

As to `COc1ccc2c(c1)[C@]13CCCC[C@@H]1[C@H](C2)N(C)CC3` [DEXTROMETHORPHAN], in series [3] (gene CYBB, ref DGIdb), the interaction_types entry is recorded as “inhibitor”.

In the case of ALDESLEUKIN, in series [3], the interaction_types result is recorded as “agonist”. Consider `NS(=O)(=O)Cc1noc2ccccc12` [ZONISAMIDE], for which, in series [3] (gene CA1, ref DGIdb), the interaction_types entry is recorded as “inhibitor”. Take `CC1=C(/C=C/C(C)=C\C=C\C(C)=C\C(=O)O)C(C)(C)CCC1` [ALITRETINOIN, reference compound]: in series [3] (gene RXRB, ref DGIdb), the interaction_types entry is “agonist”.

On to `CNC[C@H](O)c1ccc(O)c(O)c1` [EPINEPHRINE], for which the interaction_types result in series [3] is on record as “agonist¦antagonist”. As for `CN[C@@H](C)[C@@H](O)c1ccccc1` [PSEUDOEPHEDRINE], in series [3] (setting [5]), the interaction_types entry is on record as “inhibitor”. The molecule `Cc1ccc(-c2cc(C(F)(F)F)nn2-c2ccc(S(N)(=O)=O)cc2)cc1` [Celecoxib] displayed a CC50 in the series “in vitro” greater than 20 µM. This molecule returned an IC50 in series [1] (setting [4]) of 3.25 µM. In addition, the “can cross blood brain barrier” value in series [2] was “can cross blood brain barrier”. Consider `C[C@@H](C(=O)O)c1ccc(-c2ccccc2)c(F)c1` [TARENFLURBIL], for which the interaction_types result in series [3] (gene PSENEN, ref DGIdb) is on record as “modulator”. On to `COC(=O)c1ccc2c(c1)NC(=O)/C2=C(\Nc1ccc(N(C)C(=O)CN2CCN(C)CC2)cc1)c1ccccc1` [NINTEDANIB, reference compound], for which the interaction_types result is listed as “inhibitor” in series [3] (gene FGR, ref DGIdb) and “inhibitor” in series [3] (setting [6]). Regarding `CN1CCC[C@H]1c1cccnc1` [NICOTINE], the interaction_types result in series [3] is given as “inhibitor”.

Take `CCOC(=O)c1ccc(C#Cc2ccc3c(c2)C(C)(C)CCS3)nc1` [TAZAROTENE, reference compound]: the interaction_types result in series [3] (gene RXRB, ref DGIdb) is reported as “agonist”.

With `CC(C)CCC[C@@H](C)[C@H]1CC[C@H]2[C@@H]3CC=C4C[C@@H](O)CC[C@]4(C)[C@H]3CC[C@]12C` [CHOLESTEROL], the interaction_types result in series [3] (gene CLEC4E, ref DGIdb) is “ligand”. On to `CCCCc1c(-c2ccc(OC)cc2)[nH]c2nccnc12` [ALOISINE], for which, in series [3] (gene PTK2B, ref DGIdb), the interaction_types entry is on record as “inhibitor”.

With `CC(C)(Oc1ccc(CCNC(=O)c2ccc(Cl)cc2)cc1)C(=O)O` [BEZAFIBRATE], in series [3] (gene RXRB, ref DGIdb), the interaction_types result is given as “agonist”.

Turning to SARGRAMOSTIM, the interaction_types result in series [3] (gene CSF2RB, ref DGIdb) is on record as “agonist”.

For the molecule FILGRASTIM, the interaction_types result in series [3] (gene CSF2RB, ref DGIdb) is listed as “agonist”; in series [3] (gene CSF3R, ref DGIdb) it was “stimulator¦agonist”. On to `CN(CCO)CC(O)Cn1cnc2c1c(=O)n(C)c(=O)n2C` (centres unmarked) [XANTHINOL], for which the interaction_types entry in series [3] (gene RPL3, drug-gene interaction listed in DGIdb export, ref DGIdb) is given as “binder”. For `O=c1nc(OC[C@@H]2COCCO2)cc2n1CCc1cc(C#CC3CC3)ccc1-2` [GLPG-1205], the interaction_types entry in series [3] (gene GPR84, ref DGIdb) is recorded as “antagonist”. With `CSCCNc1nc(SCCC(F)(F)F)nc2c1ncn2[C@@H]1O[C@H](COP(=O)(O)OP(=O)(O)C(Cl)(Cl)P(=O)(O)O)[C@@H](O)[C@H]1O` [Cangrelor, reference compound], the interaction_types result in series [3] (gene P2RY13, ref DGIdb) was “antagonist”.

For the molecule `C=CC(=O)N1CCC[C@@H](n2nc(-c3ccc(Oc4ccccc4)cc3)c3c(N)ncnc32)C1` [IBRUTINIB], the interaction_types result in series [3] (setting [6]) is recorded as “inhibitor”.

B1: ONERCEPT (protein, UniProt P19438 30-211, looked up)
extracellular domain: LVPHLGDREKRDSVCPQGKYIHPQNNSICCTKCHKGTYLYNDCPGPGQDTDCRECESGSFTASENHLRHCLSCSKCRKEMGQVEISSCTVDRDTVCGCRKNQYRHYWSENLFQCFNCSLCLNGTVHLSCQEKQNTVCTCHAGFFLRENECVSCSNCKKSLECTKLCLPQIENVKGTEDSGTT
modifications: extracellular domain
For the molecule B1, the interaction_types entry in series [3] (setting [5]) was “inhibitor”.

B2: PEGSUNERCEPT (protein, UniProt P19438 30-211, looked up)
extracellular domain: LVPHLGDREKRDSVCPQGKYIHPQNNSICCTKCHKGTYLYNDCPGPGQDTDCRECESGSFTASENHLRHCLSCSKCRKEMGQVEISSCTVDRDTVCGCRKNQYRHYWSENLFQCFNCSLCLNGTVHLSCQEKQNTVCTCHAGFFLRENECVSCSNCKKSLECTKLCLPQIENVKGTEDSGTT
modifications: extracellular domain PEGylated
In the case of B2, in series [3] (setting [5]), the interaction_types entry is on record as “inhibitor”.

B3: OTLERTUZUMAB (antibody, chains of the INN, looked up, V domains shown)
VH: EVQLVQSGAEVKKPGESLKISCKGSGYSFTGYNMNWVRQMPGKGLEWMGNIDPYYGGTTYNRKFKGQVTISADKSISTAYLQWSSLKASDTAMYYCARSVGPFDSWGQGTLVTVSS
VL: EIVLTQSPATLSLSPGERATLSCRASENVYSYLAWYQQKPGQAPRLLIYFAKTLAEGIPARFSGSGSGTDFTLTISSLEPEDFAVYYCQHHSDNPWTFGQGTKVEIK
As for B3, the interaction_types result in series [3] (gene CD37, ref DGIdb) was “antibody”.

B4: LENOGRASTIM (protein, UniProt P09919 31-207, looked up)
Granulocyte …: TPLGPASSLPQSFLLKCLEQVRKIQGDGAALQEKLVSECATYKLCHPEELVLLGHSLGIPWAPLSSCPSQALQLAGCLSQLHSGLFLYQGLLQALEGISPELGPTLDTLQLDVADFATTIWQQMEELGMAPALQPTQGAMPAFASAFQRRAGGVLVASHLQSFLEVSYRVLRHLAQP
modifications: glycosylated
For B4, the interaction_types result in series [3] (gene CSF3R, ref DGIdb) was “agonist”.

B5: ASELIZUMAB (antibody, chains of the INN, looked up, V domains shown)
VH: EVQLVESGGGLVQPGGSLRLSCAASGFTFSTYAMSWVRQAPGKGLEWVASISTGGSTYYPDSVKGRFTISRDNAKNTLYLQMNSLRAEDTAVYYCARDYDGYFDYWGQGTLVTVSS
VL: DIQMTQSPSSLSASVGDRVTITCKASQSVDYDGDSYMNWYQQKPGKAPKLLIYAASNLESGIPSRFSGSGSGTDFTLTISSLQPEDFATYYCQQSNEDPWTFGQGTKVEIK
As to B5, the interaction_types entry in series [3] (gene SELL, ref DGIdb) was “inhibitor”.

B6: CERTOLIZUMAB PEGOL (antibody, chains of the INN, looked up, V domains shown)
VH: EVQLVESGGGLVQPGGSLRLSCAASGYVFTDYGMNWVRQAPGKGLEWMGWINTYIGEPIYADSVKGRFTFSLDTSKSTAYLQMNSLRAEDTAVYYCARGYRSYAMDYWGQGTLVTVSS
VL: DIQMTQSPSSLSASVGDRVTITCKASQNVGTNVAWYQQKPGKAPKALIYSASFLYSGVPYRFSGSGSGTDFTLTISSLQPEDFATYYCQQYNIYPLTFGQGTKVEIK
modifications: Fab' PEGylated
Turning to B6, in series [3] (setting [5]), the interaction_types result is recorded as “inhibitor”.

B7: DACLIZUMAB (antibody, chains of the INN, looked up, V domains shown)
VH: QVQLVQSGAEVKKPGSSVKVSCKASGYTFTSYRMHWVRQAPGQGLEWIGYINPSTGYTEYNQKFKDKATITADESTNTAYMELSSLRSEDTAVYYCARGGGVFDYWGQGTLVTVSS
VL: DIQMTQSPSTLSASVGDRVTITCSASSSISYMHWYQQKPGKAPKLLIYTTSNLASGVPARFSGSGSGTEFTLTISSLQPDDFATYYCHQRSTYPLTFGQGTKVEVK
Consider B7, for which the interaction_types entry in series [3] (gene IL2RG, ref DGIdb) was “inhibitor”.

B8: TABALUMAB (antibody, chains of the INN, looked up, V domains shown)
VH: QVQLQQWGAGLLKPSETLSLTCAVYGGSFSGYYWSWIRQPPGKGLEWIGEINHSGSTNYNPSLKSRVTISVDTSKNQFSLKLSSVTAADTAVYYCARGYYDILTGYYYYFDYWGQGTLVTVSS
VL: EIVLTQSPATLSLSPGERATLSCRASQSVSRYLAWYQQKPGQAPRLLIYDASNRATGIPARFSGSGSGTDSTLTISSLEPEDFAVYYCQQRSNWPRTFGQGTKVEIK
In the case of B8, the interaction_types result in series [3] (gene TNFSF13B, drug-gene interaction listed in DGIdb export, ref DGIdb) is given as “inhibitor”.
